Test results as given in patent publication US12037324B2, “Biarylmethyl heterocycles” (Université de Montréal, priority 2016, dated 2024).
pEC50: −log10 of the molar value. Where two headings read alike, the source gives them in different places.

What was measured:
AGTR1 = target: T1, AGTR1 (Homo sapiens, UniProt P30556); assay: DiscoveRx β-arrestin2 recruitment assay (enzyme complementation, Pathunter CHO-K1 AGTR1 β-arrestin cell line); assay type: cell-based
T1 construct: host or cells: Pathunter CHO-K1 AGTR1 β-arrestin cell line (CHO-K1)
T1 sequence (P30556 1-359): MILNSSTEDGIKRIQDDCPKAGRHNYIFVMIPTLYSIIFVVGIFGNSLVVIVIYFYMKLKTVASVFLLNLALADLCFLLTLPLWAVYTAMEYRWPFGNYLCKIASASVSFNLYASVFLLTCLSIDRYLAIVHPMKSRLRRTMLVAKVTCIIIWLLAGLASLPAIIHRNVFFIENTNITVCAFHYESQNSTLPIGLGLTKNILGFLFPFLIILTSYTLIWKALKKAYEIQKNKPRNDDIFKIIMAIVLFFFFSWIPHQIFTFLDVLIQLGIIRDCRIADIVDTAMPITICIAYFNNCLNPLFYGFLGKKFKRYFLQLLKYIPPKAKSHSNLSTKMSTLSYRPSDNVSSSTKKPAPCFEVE
How it was run: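 CHO-K1 cells expressing AGTR1 with β-arrestin2 enzyme-complementation reporter, plated 14-16 h ahead in 1% serum medium, then exposed to compounds for 90 min at 37° C. Chemiluminescence read after 1 h detection. EC50 (agonist) or IC50 (antagonist) from 4-parameter logistic fit; activity as percentage of All maximal effect.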

hAT1R [1] = target: T2, hAT1R (Homo sapiens, UniProt P30556); assay: cell-based; conditions: section of the 42nd table ending at r951, example numbering restarts after the DiscoveRx section; read-out: β-arrestin2 EC50
T2 sequence (P30556 1-359): T1 sequence (P30556 1-359)

hAT1R [2] = target: T2, hAT1R; assay: BRET Gq biosensor assay, agonist response, HEK293 cells; assay type: cell-based; conditions: section of the 42nd table directly before the BRET P63 section
How it was run: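 HEK293 cells co-transfected with signal-peptide-optimized hAT1R plus Gαq-Rluc, Gβ1 and GFP-Gγ1, assayed 48 h later in Tyrode's buffer pH 7.4. Coelenterazine (2 μM final) added, then compound; BRET2 (515/410 nm) read after 5 min at room temperature. EC50 by 4-parameter fit, normalized to unstimulated (0%) and maximal AngII (100%).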

hAT1R [3] = target: T2, hAT1R; assay: cell-based; conditions: agonist mode; for pEC50: read-out: BRET P63 EC50
hAT1R [4] = target: T2, hAT1R; assay: BRET β-arrestin2 biosensor assay, higher receptor expression (hAT1R 5 ng/well), HEK293 cells; assay type: cell-based; conditions: for pEC50: High AT1R Expression
[5] = DiscoveRx β-arrestin2 recruitment
[6] = DiscoveRx β-arrestin2 recruitment, maximal response

pEC50 (hAT1R [1])	pEC50 (AGTR1)	SMILES	pEC50 (AGTR1; [5])	DiscoveRx β-arrestin2 Ymax (%) (AGTR1; [6])	pEC50 (hAT1R [2])	pEC50 (hAT1R [3])	BRET β-Arrestin2 High AT1R Expression Ymax (%) (hAT1R [4])	pEC50 (hAT1R [4])	BRET P63 Ymax (hAT1R [3]) [%]	DiscoveRx β-arrestin2 Ymax (%) (AGTR1; [5])
6.20		CCOc1nc2cccc(C(=O)O)c2n1Cc1ccc(-c2cc(Oc3cnccc3C)ccc2-c2nn[nH]n2)cc1 [Example 337]	7.39	85.6	7.25	< 5.00				
		CCCCc1nc(Cl)c(C(=O)O)n1Cc1ccc(-c2cc(-c3cccc4[nH]ccc34)ccc2-c2nn[nH]n2)cc1 [Example 392, 1-((5′-(1H-indol-4-yl)-2′-(2H-tetrazol-5-yl)-1,1,1′-biphenyll-4-yl)methyl)-2-butyl-4-chloro-1H-imidazole-5-carboxyimc acid]	7.34	29.2	5.48	< 4.00	79.1	7.76		
8.22		CCOc1nc2cccc(C(=O)O)c2n1Cc1ccc(-c2cc(Oc3cccc(OC(F)(F)F)c3)ccc2-c2nn[nH]n2)cc1 [Example 335]	7.44	22.7	6.14	< 5.00				
7.92		CCOc1nc2cccc(C(=O)O)c2n1Cc1ccc(-c2cc(Oc3cccc(OC)c3)ccc2-c2nn[nH]n2)cc1 [Example 332]	7.62	30.6	6.98	< 5.00				
8.08		CCOc1nc2cccc(C(=O)O)c2n1Cc1ccc(-c2cc(Oc3cccc(F)c3)ccc2-c2nn[nH]n2)cc1 [Example 331]	7.88	44.5	7.58	< 5.00				
		CCCCC(=O)N(Cc1ccc(-c2cc(Nc3ccccc3)ccc2-c2nn[nH]n2)cc1)[C@H](C(=O)O)C(C)C [Example 449]	6.58		< 4.00	< 4.00	30.1	6.46		17.8
7.89		CCOc1nc2cccc(C(=O)O)c2n1Cc1ccc(-c2cc(-n3cnc4ccccc43)ccc2-c2nn[nH]n2)cc1 [Example 339]	7.97	58.0	7.28	< 5.00				
		CCCCC(=O)N(Cc1ccc(-c2cc(-c3ccccn3)ccc2-c2nn[nH]n2)cc1)C1(C(=O)O)CCCCC1 [Example 293, 1-(N-((5′-(Pyridin-2-yl)-2′-(2H-tetrazol-5-yl)-[1,1′-biphenyl]-4-yl)methyl)pentanamido)cyclohexanecarboxylic acid]	6.73	40.4	5.91	< 4.00	70.2	6.87		
		CCCCC(=O)N(Cc1ccc(-c2cc(-c3cccc(OC)n3)ccc2-c2nn[nH]n2)cc1)[C@H](C(=O)O)C(C)C [Example 446]	6.75		< 4.00	6.18	84.3	6.84	4.5	29.8
		CCCCC(=O)N(Cc1ccc(-c2cc(-c3ccccn3)ccc2-c2nn[nH]n2)cc1)[C@H](C(=O)O)C(C)C [Example 443, (S)-3-Methyl-2-(N-((5′-(pyridin-2-yl)-2′-(2H-tetrazol-5-yl)-[1,1′-biphenyl]-4-yl)methyl)pentanamido)butanoic]	6.91		7.11	6.44	83.9	6.81	4.5	36.5
		CCCCC(=O)N(Cc1ccc(-c2cc(-c3cccc(C)n3)ccc2-c2nn[nH]n2)cc1)[C@H](C(=O)O)C(C)C [Example 444]	6.90		6.59	< 4.00	46.5	6.83		36.3
		CCCCC(=O)N(Cc1ccc(-c2cc(N3CCCC(C)C3)ccc2-c2nn[nH]n2)cc1)C1(C(=O)O)CCCCC1 (stereo not drawn) [Example 297, 1-(N-((5′-(3-methylpiperidin-1-yl)-2′-(2H-tetrazol-5-yl)-[1,1′-biphenyl]-4-yl)methyl)pentanamido)cyclohexanecarboxylic acid]	6.85	30.5	6.21	< 4.00	74.5	6.48		
6.74	< 4.00	CCCCC1=NC2(CCCC2)C(=O)N1Cc1ccc(-c2cc(Oc3cc(C)ccn3)ccc2-c2nn[nH]n2)cc1 [Example 455]	7.33		7.03					14.4
		CCCCC(=O)N(Cc1ccc(-c2cc(-c3cccc(C)n3)ccc2-c2nn[nH]n2)cc1)C1(C(=O)O)CCCCC1 [Example 294]	7.06	28.9	6.37	< 4.00	24.7	6.82		
		CCCCC(=O)N(Cc1ccc(-c2cc(N3CCCC(C)C3)ccc2-c2nn[nH]n2)cc1)[C@H](C(=O)O)C(C)C (stereo partly drawn) [Example 448]	6.79		6.07	< 4.00	58.5	6.22		20.8
		CCCCC(=O)N(Cc1ccc(-c2cc(-c3cccc(OC)n3)ccc2-c2nn[nH]n2)cc1)C1(C(=O)O)CCCCC1 [Example 296]	6.89	41.8	6.21	6.51	79.9	7.16	6.9	
		CCCCC(=O)N(Cc1ccc(-c2cc(N3CCC(C)CC3)ccc2-c2nn[nH]n2)cc1)[C@H](C(=O)O)C(C)C [Example 447]	6.53		5.86	< 4.00	63.1	6.47		35.0
		CCCCC(=O)N(Cc1ccc(-c2cc(-c3ccccc3)ccc2-c2nn[nH]n2)cc1)C1(C(=O)O)CCN(c2ccccc2)CC1 [Example 298, 4-(N-((6′-(2H-Tetrazol-5-yl)-[1,1′:3′,1″-terphenyl]-4-yl)methyl)pentan-amido)-1-phenylpiperidine-4-carboxylic acid]	6.56	31.3	6.02	< 4.00	68.8	6.57		

SMILES	pEC50 (hAT1R [1])	pEC50 (AGTR1)	pEC50 (AGTR1; [5])	DiscoveRx β-arrestin2 Ymax (%) (AGTR1; [6])	pEC50 (hAT1R [2])	pEC50 (hAT1R [3])	BRET β-Arrestin2 High AT1R Expression Ymax (%) (hAT1R [4])	pEC50 (hAT1R [4])	BRET P63 Ymax (hAT1R [3]) [%]	DiscoveRx β-arrestin2 Ymax (%) (AGTR1; [5])
CCOc1nc2cccc(C(=O)O)c2n1Cc1ccc(-c2cc(-c3ccccn3)ccc2-c2noc(=O)[nH]2)cc1 [Example 303]	7.42		7.37	58.9	6.96	7.30			30.4	
CCc1nc2c(C)cc(C)nc2n1Cc1ccc(-c2cc(-c3ccccc3)ccc2-c2nn[nH]n2)cc1F [Example 264, 2-ethyl-3-((3-fluoro-6′-(2H-tetrazol-5-yl)-[1,1′:3′,1″-terphenyl]-4-yl)methyl)-5,7-dimethyl-3H-imidazo[4,5-b]pyridine]	7.89		7.72	52.9	7.37	8.13			15.7	
CCOc1nc2cccc(C(=O)O)c2n1Cc1ccc(-c2cc(-c3cc(C)ccn3)ccc2-c2noc(=O)[nH]2)cc1 [Example 299, 2-ethoxy-1-((5′-(4-methylpyridin-2-yl)-2′-(5-oxo-4,5-dihydro-1,2,4-oxadiazol-3-yl)-[1,1′-biphenyl]-4-yl)methyl)-1H-benzo[d]imidazole-7-carboxylic acid]	8.33		8.11	83.0	7.67	8.31			31.7	
CCOc1nc2cccc(C(=O)O)c2n1Cc1ccc(-c2cc(-c3cc(OC)ccn3)ccc2-c2nn[nH]n2)cc1 [Example 310, 2-ethoxy-1-((5′-(4-methoxypyridin-2-yl)-2′-(2H-tetrazol-5-yl)-[1,1′-biphenyl]-4-yl)methyl)-1H-benzo[d]imidazole-7-carboxylic acid]	7.96		7.83	51.4	7.45	8.14			29.1	
